Data as given in PubChem BioAssay AID328 (DTP/NCI, 2004).
Where “and” joins values, the source holds several entries; their conditions need not be identical. Equal entries are not always repeated. Inconclusive results and toxic doses are left out. Residues, ends and D or L forms follow the SMILES beside them. *: point of attachment. Cbz = O=C(OCc1ccccc1)*

Test system: BDF1 mice, P388 leukemia ip, median survival T/C
Assay: NCI In Vivo Anticancer Drug Screen. Data for tumor model P388 Leukemia (intraperitoneal) in B6D2F1 (BDF1) mice
Conditions: endpoint: median survival time, higher = longer survival
Procedure, shortened: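 Antitumour effect was judged in vivo: survival in drug-treated mice, normalised to that of vehicle-dosed controls, gives the reported T/C.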

[1] = dose: 6.25 mg/kg/injection, schedule: Q01DX009 (ip), vehicle: saline with Tween-80
[2] = dose: 12.5 mg/kg/injection, schedule: Q01DX009 (ip), vehicle: saline with Tween-80
[3] = dose: 12.5 mg/kg/injection, schedule: Q04DX003 (ip), vehicle: saline with Tween-80
[4] = dose: 25.0 mg/kg/injection, schedule: Q04DX003 (ip), vehicle: saline with Tween-80
[5] = dose: 50.0 mg/kg/injection, schedule: Q04DX003 (ip), vehicle: saline with Tween-80
[6] = dose: 50.0 mg/kg/injection, schedule: Q01DX009 (ip), vehicle: saline
[7] = dose: 100.0 mg/kg/injection, schedule: Q01DX009 (ip), vehicle: saline
[8] = dose: 100.0 mg/kg/injection, schedule: Q04DX003 (ip), vehicle: Klucel (hydroxypropylcellulose) (HPC)
[9] = dose: 200.0 mg/kg/injection, schedule: Q04DX003 (ip), vehicle: Klucel (hydroxypropylcellulose) (HPC)
[10] = dose: 400.0 mg/kg/injection, schedule: Q04DX003 (ip), vehicle: Klucel (hydroxypropylcellulose) (HPC)
[11] = dose: 100.0 mg/kg/injection, schedule: Q01DX009 (ip), vehicle: Klucel (hydroxypropylcellulose) (HPC)
[12] = dose: 200.0 mg/kg/injection, schedule: Q01DX009 (ip), vehicle: Klucel (hydroxypropylcellulose) (HPC)
[13] = dose: 200.0 mg/kg/injection, schedule: Q01DX009 (ip), vehicle: saline
[14] = dose: 100.0 mg/kg/injection, schedule: Q04DX003 (ip), vehicle: saline
[15] = dose: 200.0 mg/kg/injection, schedule: Q04DX003 (ip), vehicle: saline
[16] = dose: 400.0 mg/kg/injection, schedule: Q04DX003 (ip), vehicle: saline
[17] = dose: 6.25 mg/kg/injection, schedule: Q04DX003 (ip), vehicle: saline sonified
[18] = dose: 12.5 mg/kg/injection, schedule: Q04DX003 (ip), vehicle: saline sonified
[19] = dose: 25.0 mg/kg/injection, schedule: Q04DX003 (ip), vehicle: saline sonified
[20] = dose: 100.0 mg/kg/injection, schedule: Q04DX003 (ip), vehicle: saline with Tween-80
[21] = dose: 200.0 mg/kg/injection, schedule: Q04DX003 (ip), vehicle: saline with Tween-80
[22] = dose: 400.0 mg/kg/injection, schedule: Q04DX003 (ip), vehicle: saline with Tween-80

## CSc1nc([N+](=O)[O-])c2cnccn12
dose: 5.0 mg/kg/injection, schedule: Q04DX003 (ip), vehicle: saline with Tween-80
  T/C: 103 % of control
[1]
  T/C: 97 % of control
dose: 10.0 mg/kg/injection, schedule: Q04DX003 (ip), vehicle: saline with Tween-80
  T/C: 99 % of control
[2]
  T/C: 99 % of control
[3]
  T/C: 101 % of control
dose: 20.0 mg/kg/injection, schedule: Q04DX003 (ip), vehicle: saline with Tween-80
  T/C: 90 % of control
dose: 25.0 mg/kg/injection, schedule: Q01DX009 (ip), vehicle: saline with Tween-80
  T/C: 96 % of control
[4]
  T/C: 92 % of control
dose: 40.0 mg/kg/injection, schedule: Q04DX003 (ip), vehicle: saline with Tween-80
  T/C: 114 % of control
[5]
  T/C: 89 % of control

## NC(CC1=CCC=CC1)C(=O)O (stereo unspecified)
[6]
  T/C: 96 % of control and 113 % of control
[7]
  T/C: 117 % of control

## CC1=CC(C(O)C(C)C)C(C)(Cc2ccc(C)cn2)NC1c1ccccc1 (stereo unspecified)
dose: 6.25 mg/kg/injection, schedule: Q04DX003 (ip), vehicle: saline with Tween-80
  T/C: 102 % of control
[3]
  T/C: 102 % of control
[4]
  T/C: 109 % of control

## COc1cc(O)c2c(c1O)C(=O)c1cc(C)ncc1C2=O
dose: 100.0 mg/kg/injection, schedule: Q01DX009 (ip), vehicle: saline with Tween-80
  T/C: 91 % of control
dose: 200.0 mg/kg/injection, schedule: Q01DX009 (ip), vehicle: saline with Tween-80
  T/C: 91 % of control
dose: 400.0 mg/kg/injection, schedule: Q01DX009 (ip), vehicle: saline with Tween-80
  T/C: 91 % of control

## O=C(O)C1CCCN1C(=O)C1CCCN1C(=O)OCc1ccccc1 (stereo not drawn) (Cbz-Pro-Pro-OH; configuration not given here)
dose: 50.0 mg/kg/injection, schedule: Q01DX005 (ip), vehicle: saline
  T/C: 101 % of control
dose: 100.0 mg/kg/injection, schedule: Q01DX005 (ip), vehicle: saline
  T/C: 101 % of control
dose: 200.0 mg/kg/injection, schedule: Q01DX005 (ip), vehicle: saline
  T/C: 107 % of control

## CC(C)c1ccccc1OS(=O)(=O)c1c(F)c(F)c(F)c(F)c1F
dose: 6.25 mg/kg/injection, schedule: Q01DX001 (ip), vehicle: saline with Tween-80
  T/C: 104 % of control
dose: 12.5 mg/kg/injection, schedule: Q01DX001 (ip), vehicle: saline with Tween-80
  T/C: 109 % of control
dose: 25.0 mg/kg/injection, schedule: Q01DX001 (ip), vehicle: saline with Tween-80
  T/C: 118 % of control

## OCCN1CCN(CC/C=C2\c3ccccc3Sc3ccc(Cl)cc32)CC1
dose: 6.25 mg/kg/injection, schedule: Q01DX009 (ip), vehicle: saline
  T/C: 114 % of control
dose: 12.5 mg/kg/injection, schedule: Q01DX009 (ip), vehicle: saline
  T/C: 114 % of control

## CC(=O)OC1CC2(C)C3(CO3)C1OC1C=C(C)C(=O)C(O)C12CO (stereo unspecified)
dose: 5.0 mg/kg/injection, schedule: Q04DX002 (ip), vehicle: saline + alcohol
  T/C: 105 % of control
dose: 10.0 mg/kg/injection, schedule: Q04DX002 (ip), vehicle: saline + alcohol
  T/C: 100 % of control
dose: 20.0 mg/kg/injection, schedule: Q04DX002 (ip), vehicle: saline + alcohol
  T/C: 107 % of control
dose: 40.0 mg/kg/injection, schedule: Q04DX002 (ip), vehicle: saline + alcohol
  T/C: 109 % of control

## CCCCCCCCCCCCCCCCCC(=O)Oc1ccc(OCc2ccccc2)cc1
[8]
  T/C: 100 % of control
[9]
  T/C: 100 % of control
[10]
  T/C: 90 % of control

## CC(C)(C)NC(C1=CC(C)(C)c2ccccc2C1=O)c1ccccc1 (stereo unspecified)
[11]
  T/C: 105 % of control
[8]
  T/C: 100 % of control
[12]
  T/C: 110 % of control
[9]
  T/C: 95 % of control
[10]
  T/C: 90 % of control

## COc1ccc(C(=NO)c2ccc(OC)cc2)cc1
[11]
  T/C: 109 % of control
[7]
  T/C: 100 % of control and 109 % of control
[12]
  T/C: 118 % of control
[13]
  T/C: 105 % of control and 109 % of control
dose: 400.0 mg/kg/injection, schedule: Q01DX009 (ip), vehicle: Klucel (hydroxypropylcellulose) (HPC)
  T/C: 118 % of control
dose: 400.0 mg/kg/injection, schedule: Q01DX009 (ip), vehicle: saline
  T/C: 120 % of control

## CC(C)(S)C(N)C(=O)O (stereo unspecified)
[6]
  T/C: 86 % of control
[7]
  T/C: 90 % of control
[14]
  T/C: 91 % of control
[13]
  T/C: 90 % of control
[15]
  T/C: 91 % of control
[16]
  T/C: 100 % of control

## CCOC(=O)C(C(=O)COC)C(=O)OCC
dose: 12.5 mg/kg/injection, schedule: Q04DX003 (ip), vehicle: water
  T/C: 100 % of control
dose: 25.0 mg/kg/injection, schedule: Q04DX003 (ip), vehicle: water
  T/C: 108 % of control
dose: 50.0 mg/kg/injection, schedule: Q04DX003 (ip), vehicle: water
  T/C: 105 % of control
dose: 100.0 mg/kg/injection, schedule: Q04DX003 (ip), vehicle: water
  T/C: 115 % of control
dose: 200.0 mg/kg/injection, schedule: Q04DX003 (ip), vehicle: water
  T/C: 115 % of control

## COC(=O)CCCCCCCCC[CH2][Hg][Cl]
[17]
  T/C: 100 % of control
[18]
  T/C: 100 % of control
[19]
  T/C: 122 % of control

## CC(=O)Nc1ccc(S(=O)(=O)c2ccc([N+](=O)[O-])cc2)cc1
[5]
  T/C: 101 % of control
[20]
  T/C: 106 % of control
[21]
  T/C: 105 % of control
[22]
  T/C: 99 % of control

## O=C(NCCNC(=O)c1cccnc1)c1ccncc1
dose: 100.0 mg/kg/injection, schedule: Q01DX001 (ip), vehicle: saline
  T/C: 90 % of control
dose: 200.0 mg/kg/injection, schedule: Q01DX001 (ip), vehicle: saline
  T/C: 90 % of control
dose: 400.0 mg/kg/injection, schedule: Q01DX001 (ip), vehicle: saline
  T/C: 90 % of control

## [Cl][Hg][CH2]CC1CC=CCC1 (stereo unspecified)
[1]
  T/C: 113 % of control
[17]
  T/C: 104 % of control
[2]
  T/C: 117 % of control
[18]
  T/C: 122 % of control
[19]
  T/C: 118 % of control

## O=[N+]([O-])C(Cl)(Cl)C(Cl)(Cl)[N+](=O)[O-]
dose: 1.25 mg/kg/injection, schedule: Q01DX009 (ip), vehicle: other
  T/C: 100 % of control
dose: 2.5 mg/kg/injection, schedule: Q01DX009 (ip), vehicle: other
  T/C: 100 % of control
dose: 2.5 mg/kg/injection, schedule: Q04DX003 (ip), vehicle: other
  T/C: 87 % of control
dose: 5.0 mg/kg/injection, schedule: Q01DX009 (ip), vehicle: other
  T/C: 95 % of control
dose: 5.0 mg/kg/injection, schedule: Q04DX003 (ip), vehicle: other
  T/C: 104 % of control

## S=P(NCCNP(=S)(N1CC1)N1CC1)(N1CC1)N1CC1
dose: 33.0 mg/kg/injection, schedule: Q04DX003 (ip), vehicle: saline with Tween-80
  T/C: 121 % of control
[5]
  T/C: 256 % of control
dose: 75.0 mg/kg/injection, schedule: Q04DX003 (ip), vehicle: saline with Tween-80
  T/C: 121 % of control

## Nc1ccn(C2OC(COC3CCCCO3)C(OC3CCCCO3)C2OC2CCCCO2)c(=O)n1 (stereo unspecified)
dose: 50.0 mg/kg/injection, schedule: Q01DX007 (ip), vehicle: saline
  T/C: 108 % of control
dose: 100.0 mg/kg/injection, schedule: Q01DX007 (ip), vehicle: saline
  T/C: 94 % of control
[14]
  T/C: 90 % of control
dose: 200.0 mg/kg/injection, schedule: Q01DX007 (ip), vehicle: saline
  T/C: 94 % of control
[15]
  T/C: 86 % of control
dose: 400.0 mg/kg/injection, schedule: Q01DX007 (ip), vehicle: saline
  T/C: 100 % of control
[16]
  T/C: 104 % of control

## Cc1ccc(S(=O)(=O)N/N=C2/C(=N/NS(=O)(=O)c3ccc(C)cc3)C3CCC2C3)cc1
dose: 50.0 mg/kg/injection, schedule: Q01DX009 (ip), vehicle: other
  T/C: 105 % of control
dose: 100.0 mg/kg/injection, schedule: Q01DX009 (ip), vehicle: other
  T/C: 96 % of control
dose: 200.0 mg/kg/injection, schedule: Q01DX009 (ip), vehicle: other
  T/C: 95 % of control

## O=[N+]([O-])c1ccc2nnn(OC3CCCC3)c2c1
[20]
  T/C: 98 % of control
[21]
  T/C: 101 % of control
[22]
  T/C: 88 % of control
